The values that follow come from patent publication US10682317B2 (ZOGENIX INTERNATIONAL LIMITED, priority 2017, dated 2020).

Converted amounts (≈) assume the structure as drawn. “And” between values parts separate entries of the source, which are not always exact repeats. Equal values may be shown once. Where a name gives a salt, the structure may show the parent alone. Read-outs that look alike come from different tables or passages of the source. Some results are limits rather than exact numbers.

The solubility is the concentration that dissolves in the medium under given conditions.

The test system of data set [1] is seizures. The data set can be described thus: Treatment of seizures in epilepsy patients. Type of data set: in vivo, human. The source says: Clemens, in Epilepsy Research (1988) 2:340-343 reported a study on a child suffering pattern sensitivity-induced seizures that were resistant to anticonvulsive treatment.
This is confirmed, for example, in the article by Ceulemans et al., Epilepsia (2012) 53(7):1131-1139, the contents of which are incorporated herein.
(§1) The overall anorectic effect of dexfenfluramine is greater than that of […] in experimental animals (Garratini et al. 1988) and humans (Goodall et al. 1992). […] Put differently, a preferred dose is not more than about 30 mg/day, and less than about 1 to about 0.01 mg/kg/day.

In data set [2] the test system is food intake / carbohydrate craving. Put plainly: Anorectic effect, food intake and carbohydrate craving. The class given is in vivo, human. The settings on record: surprisingly low dose, compared to 60-120 mg/day for obesity. The procedure: as §1
Data set [3] relates to seizures. The settings on record: cited from earlier work.
Data set [4] concerns cardiac fibrosis and pulmonary hypertension. The settings on record: marketed use for obesity; cited from earlier work.
Data set [5] deals with food intake / carbohydrate craving. The settings on record: cited from earlier work.
For data set [6], the target named is T1, vesicular glutamate transporter, VGLUT2 (Homo sapiens, UniProt Q9P2U8).
T1 sequence (Q9P2U8 1-582): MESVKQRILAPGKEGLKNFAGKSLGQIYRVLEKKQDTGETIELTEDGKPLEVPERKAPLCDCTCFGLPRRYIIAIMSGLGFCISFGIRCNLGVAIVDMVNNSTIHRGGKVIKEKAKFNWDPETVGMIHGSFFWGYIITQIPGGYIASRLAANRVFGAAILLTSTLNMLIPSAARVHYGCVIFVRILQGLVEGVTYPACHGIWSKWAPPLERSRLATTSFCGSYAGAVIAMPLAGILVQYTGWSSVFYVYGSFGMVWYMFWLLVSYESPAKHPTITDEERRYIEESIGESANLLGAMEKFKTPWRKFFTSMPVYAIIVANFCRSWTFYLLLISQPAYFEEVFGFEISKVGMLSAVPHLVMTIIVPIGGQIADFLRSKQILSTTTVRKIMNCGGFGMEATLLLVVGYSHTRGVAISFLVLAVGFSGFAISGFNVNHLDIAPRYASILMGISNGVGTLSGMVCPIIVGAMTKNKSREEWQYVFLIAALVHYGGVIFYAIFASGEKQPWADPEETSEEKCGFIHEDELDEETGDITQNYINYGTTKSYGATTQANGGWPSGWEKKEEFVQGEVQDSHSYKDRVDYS
The settings on record: concentrations expected during the ketogenic diet; cited from earlier work.

The nature of data set [7]: Solid state stability and polymorph screening. Type of data set: physicochemical.
The nature of data set [8]: Aqueous solubility of the drug substance. The settings on record: aqueous solution.
Data set [9] in a line: Particle size of drug substance batches. The class given is physicochemical. The source says:
Fenfluramine hydrochloride drug substance is non-micronized. The range of particle size parameters obtained from five GMP batches (two clinical batches manufactured by Onyx, and three registration batches manufactured by Aptuit) is listed in Table 1.

For data set [10] the following is noted: pH 6.8.
Data set [11] can be described thus: Buffer system selection: stability of pH prototypes. The class given is physicochemical. The settings on record: pH range of 4.5 to 6.5, citrate or citrate-phosphate buffer prototypes. The procedure: A pH range of 4.5 to 6.5 was investigated during formulation development studies. Various prototypes were prepared with either citrate buffer or citrate-phosphate buffer, depending on target pH. […] Based on initial stability data, a target pH of 5.0 (range: 4.5-5.5) was selected because it minimized the preservatives degradation at long-term and accelerated stability conditions without causing precipitation in product stored at 2-8° C. The buffer components in the drug product formulation are tripotassium citrate and citric acid. Potassium citrate was used instead of sodium citrate to avoid common ion effect with the paraben sodium salts, which may have contributed to precipitation in prototypes containing sodium citrate.

Data set [12] in a line: Paraben preservative degradation (hydrolysis). The class given is physicochemical. The settings on record: pH 6. The source says: The pH of the drug product formulation was optimized to minimize the preservative degradation.
Like methylparaben, ethylparaben degrades in solution by hydrolysis. The rate increases at higher pH. The pH of the drug product formulation was optimized to minimize the preservative degradation while maintaining adequate solubility, and no significant increase in the preservatives degradation product has been observed in long-term stability studies.

The conditions of data set [13]: cited from earlier work.
[14] abbreviates: clinical and registration batches 1-5, hydrochloride.

With `CCNC(C)Cc1cccc(C(F)(F)F)c1` (stereo not shown) [fenfluramine, 3-trifluoromethyl-N-ethylamphetamine], the effect on seizures result in data set [1] (patients with Dravet syndrome, Lennox-Gastaut syndrome, or Doose syndrome) was “reduce or eliminate seizures”; in data set [3] (child with pattern sensitivity-induced seizures resistant to anticonvulsive treatment), “successfully terminated these self-induced seizures”. Also, the “efficacy of low doses on seizures” value in data set [1] (surprisingly low doses, Dravet, Lennox-Gastaut or Doose syndrome patients) was “efficacious”. Also, the “appetite and craving for carbohydrates” value in [2] is “effective in reducing appetite and craving for carbohydrates”. The number of seizures result in data set [3] (children with refractory epilepsy, 0.5 to 1 mg/kg/day) is given as “reduction in the number of seizures”. Moreover, the response of seizures entry in data set [3] (four cases of self-induced photosensitive seizures) was “responded to treatment”. In addition, the therapeutic benefit entry in data set [3] (patients with intractable epilepsy) is recorded as “appeared to be of therapeutic benefit”. In addition, the “adverse effects associated with use” value in data set [4] was “associated with the onset of cardiac fibrosis and pulmonary hypertension”.
Consider `CCN[C@@H](C)Cc1cccc(C(F)(F)F)c1` (racemic) [Dexfenfluramine], for which, in data set [5] (adults, 30 mg/day), the carbohydrate craving entry was “reduction in carbohydrate craving”. In addition, the “suppression of food intake” value in [5] (dose of 30 mg) is on record as “suppressed food intake to the same degree as fenfluramine 60 mg”. Besides, in data set [5] (group of 16 human subjects), the “anorectic potency vs racemic mixture fenfluramine” value was “twice the anorectic potency”.
`CC(=O)CC(=O)O` [acetoacetate]: in data set [6], the “glutamate transport by VGLUT2” value is reported as “inhibited”.
For the compound `CCNC(C)Cc1cccc(C(F)(F)F)c1` (stereo not shown) [fenfluramine hydrochloride], the polymorphs observed result in [7] (polymorph screening study, accelerated and long-term stability studies) is recorded as “no other polymorphs have been observed”. The solid state stability entry in [7] (solid state) was “chemically and physically stable in the solid state”. Also, the solubility in data set [8] (25 °C, pH 1.7, simulated gastric fluid) is roughly 25 mg/mL. Besides, the solubility in [8] (25 °C, pH 6.7, aqueous buffer) is greater than 50 mg/mL. The solubility in [8] (37 °C, aqueous buffer) is 54 to 96 mg/mL. Also, in data set [9] (setting [14]), the D50 was 6.99 μm and 6.79 μm and 8.92 μm and 8.20 μm and 6.16 μm; the D90 was 23.01 μm and 26.25 μm and 32.08 μm and 27.04 μm and 18.96 μm. For the same compound, in data set [9] (experimental batch), the “median particle size (D50)” value is on record as 60 μm and the “ninetieth percentile (D90)” value came out at 250 μm. In data set [9] (experimental batch vs micronized portions of the same batch), the “time needed for complete dissolution in the formulation vehicle” value was “no difference was observed in the time needed for complete dissolution”. Moreover, the “time for which the solution is stable” value in data set [10] is listed as “at least 6 months”. Also, the “stability over pH range” value in data set [11] is on record as “stable over the entire range of pH”.
Consider `COC(=O)c1ccc(O)cc1.[Na]` [Methylparaben sodium, sodium methyl p-hydroxybenzoate], for which, in [12], the stability against hydrolysis result is given as “acceptable stability below pH 6”.
With `CCOC(=O)c1ccc(O)cc1` [ethylparaben, ethyl 4-hydroxybenzoic acid], the entries for the “solubility of the free acid in water” value in [13] (20° C.) and in data set [13] (25° C.) were 0.07% and 0.08%, respectively. Also, the solubility in [13] was 0.8 mg/mL (≈ 4.81 mM).
